Source: patent US11666589B2, “Pivarubicin and benzarubicin compositions” (Paradox Pharmaceuticals, Inc., priority 2020, dated 2023)
Where “and” joins values, the source holds several entries; their conditions need not be identical. Equal entries are not always repeated. Where two headings read alike, the source gives them in different places.

Legend:
[1] = Cardiotoxicity assessment (Bertazzoli Test), non-tumor-bearing mice; type: in vivo, female NSG mice; details: for hearts with Severity 0 / hearts with Severity 0.5 / hearts with Severity 1.0 / hearts with Total Score 0 / hearts with Total Score 0.5 / hearts with Total Score 1.0: Non-Tumor-Bearing; for hearts with Severity 0 / hearts with Severity 0.5 / hearts with Severity 1.0: 3 i.p. doses at 2-week intervals; for hearts with Total Score 0 / hearts with Total Score 0.5 / hearts with Total Score 1.0: severity×extension
Protocol: (§1) Drug-mediated cardiotoxicity was assessed in both non-tumor-bearing female NSG mice administered three doses (i.p. every two weeks) of the MTD of doxorubicin, pivarubicin or the equivalent volume of solvent only and in hearts excised from tumor-bearing mice treated as described in Results section. Body weights were monitored every three days. Two weeks after final dose, mice were sacrificed, and hearts were excised immediately. Intact ventricular myocardia were fixed for a minimum of 24 h in 10% formalin phosphate buffered to pH 7.0 and then carefully sectioned into 2 to 3-mm thick slices before being dehydrated in graded ethanol and cleared in xylene prior to embedding in paraffin at 58° C. Sections (4-μm thick) were mounted on glass slides, deparaffinized in xylene, and stained in the routine fashion with Mayer's hematoxylin and eosin. Slide labels were blinded to evaluator. Myocardial lesions were evaluated by routine light microscopy and scored with regard to the severity and extent of damage:
(§2) Degree of severity (S)—0, no evidence of histological changes; 1, sarcoplasmic microvacuolization and/or inclusions (interstitial or cellular edema); 2, as in 1 plus sarcoplasmic macrovacuolization or atrophia, necrosis, fibrosis, endocardial lesions, and thrombi.
(§3) Degree of extension (E)—0, no lesions; 0.5, less than 10 single altered myocytes on the whole-heart section; 1, scattered single altered myocytes; 2, scattered small groups of altered myocytes; 3, spread small groups of altered myocytes; 4, confluent groups of altered myocytes; 5, most of cells damaged.
(§4) Total cardiotoxicity score/animal=S×E and mean total score (MTS) for each treatment group was MTS=(S×E)/number of animals.
(§5) Given the limitation of doxorubicin in the treatment of tumors due to irreversible cardiotoxicity due to the total cumulative dose of drug, it was next determined whether pivarubicin produced evidence of cardiotoxic damage at the total dose of drug administered to NSG mice that produced tumor growth inhibition. Histological evidence of ventricular damage in hearts of drug- or vehicle-treated NSG mice were assessed using the Bertazzoli Test, originally designed to assess doxorubicin-induced cardiomyocyte damage. Analyses were performed on hearts from two independent experiments: 1) hearts that were excised at dosing endpoint from tumor-bearing NSG mice receiving 2 i.p. doses of pivarubicin at 16.5 mg/kg, doxorubicin at 1.4 mg/kg then 1.6 mg/kg and an equivalent volume of vehicle alone and 2) non-tumor-bearing female NSG mice receiving 3 i.p. doses of pivarubicin at 16.5 mg/kg, doxorubicin at 1.4 mg/kg then 1.6 mg/kg×2 and an equivalent volume of vehicle alone at 2-week intervals.
(§6) Non-tumor-bearing female NSG mice at 9 weeks old were treated with either 16.5 mg/kg pivarubicin (PIV), 1.4 mg/kg (1×) and 1.6 mg/kg (2×) doxorubicin and equivalent volumes of vehicle i.p. at 2-week intervals. Tumor-bearing female NSG mouse treatment was as described for the “Cardiotoxicity Assessment method” method. At endpoint, hearts were excised and prepared for histological analysis as described above. Severity and severity×extension (total score) are defined in Materials and Methods.

[2] = Cardiotoxicity assessment (Bertazzoli Test), tumor-bearing mice; type: in vivo, female NSG mice; details: for hearts with Severity 0 / hearts with Severity 0.5 / hearts with Severity 1.0: 2 i.p. doses; for hearts with Total Score 0 / hearts with Total Score 0.5 / hearts with Total Score 1.0: severity×extension
Protocol: as §1, §2, §3, §4, §5, §6

CEM/VLB-100 = experiment: Drug resistance of P-glycoprotein overexpressing CEM/VLB-100 cells; type: cell-based, human; details: CEM/VLB-100 versus CCRF-CEM
Protocol: Pivarubicin used for TNBC studies was synthesized by Dr. John Rimoldi (Univ. of Mississippi) using the previously described protocol. Doxorubicin HCl, rottlerin and all antibodies were purchased from Sigma-Aldrich (St. Louis, Mo.). For in vitro experiments, doxorubicin and pivarubicin were dissolved in DMSO. The final maximum DMSO concentration used for in vitro drug treatments (1% for 72 hours) was not cytotoxic. IL-3-dependent 32D.3 murine myeloid cells, CCRF-CEM human lymphoblastic leukemia cells and multidrug-resistant variants (generous gift of Dr. William T. Beck, St. Jude Children's Research Hospital, Memphis, Tenn.), 293 embryonic human kidney cells and HL-60 human acute myeloid leukemia cells transfected with Bcr-Abl, Bcl-XL or empty expression vectors (generous gift of Dr. Kapil Bhalla, Univ. of Miami) were maintained as previously described. K562 human chronic myelogenous leukemia and LNCaP human prostate cancer cells were purchased from ATCC (Manassas, Va.) and maintained as described by the vendor. LNCaP/Bcl-2 cells were the generous gift of Dr. Ralph Buttyan (Columbia Univ.). Luminescent MDA-MB-231-LM2 (LM-2; metastatic lung subpopulation isolated from human TNBC MDA-MB-231 cells transduced with eIF1a-Luc2-puro lentivirus) were generously provided by Dr. Yibin Kang, Princeton Univ.) and maintained in culture as previously described. […]

MDA-MB-231 cells = experiment: MTT cytotoxicity, TNBC monolayer MDA-MB-231; type: cell-based, human; details: MDA-MB-231, 48 h
Protocol: Rottlerin treatment of cells, cell viability analysis by MTT [28] and immunoblot identification of protein expression were performed and described previously.
Based upon the ability of pivarubicin to circumvent multiple mechanisms of resistance against doxorubicin, we then examined the efficacy of pivarubicin against TNBC in comparison to doxorubicin, using the following procedure, using two basal TNBC cell lines. MDA-MB-231 cells and SUM-159 cells were maintained under adherent monolayer growth conditions. Upon reaching 50% confluency, cells were treated for 48 h with the dose range of doxorubicin or pivarubicin as indicated in FIGS. 6A and 6B.
In the absence of specific receptor targets, the current treatment of metastatic TNBC relies on doxorubicin-based multidrug therapy, with only limited effectiveness. […] Once achieving a primary tumor volume of 150-190 mm^3, mice were randomized into three cohorts for treatment with the MTD of pivarubicin or doxorubicin, or the equivalent volume per body weight of vehicle.

Row | SMILES | hearts with Severity 0 [1] | hearts with Severity 0.5 [1] | hearts with Severity 1.0 [1] | hearts with Total Score 0 [1] | hearts with Total Score 0.5 [1] | hearts with Total Score 1.0 [1] | hearts with Severity 0 [2] | hearts with Severity 0.5 [2] | hearts with Severity 1.0 [2] | hearts with Total Score 0 [2] | hearts with Total Score 0.5 [2] | hearts with Total Score 1.0 [2] | resistance (CEM/VLB-100) [fold] | IC90 (MDA-MB-231 cells; Homo sapiens) [µM] | IC90 (MDA-MB-231 cells) [µM] | histologic damage to ventricular cardiomyocytes ([1]; non-tumor-bearing mice (n=9), cumulative tumor growth inhibitory dose) | IC50 (MDA-MB-231 cells) [µM] | IC90 (MDA-MB-231 cells; read-out: IC90)
1 | COc1cccc2c1C(=O)c1c(O)c3c(c(O)c1C2=O)C[C@@](O)(C(=O)CO)C[C@@H]3O[C@H]1C[C@H](N)[C@H](O)[C@H](C)O1 [Doxorubicin, reference compound] | 5/9 | 0/9 | 4/9 | 7/9 | 2/9 | 0/9 | 7/9 | 0/9 | 2/9 | 8/9 | 1/9 | 0/9 | 73 | > 20 | 20 |  |  | 
2 | COc1cccc2c1C(=O)c1c(O)c3c(c(O)c1C2=O)C[C@@](O)(C(=O)COC(=O)C(C)(C)C)C[C@@H]3O[C@H]1C[C@H](NCc2ccccc2)[C@H](O)[C@H](C)O1 [Pivarubicin, N-Benzyladriamycin-14-pivalate] | 9/9 | 0/9 | 0/9 | 9/9 | 0/9 | 0/9 | 9/10 | 0/10 | 1/10 | 9/10 | 0/10 | 1/10 | 3 |  |  | no evidence of histologic damage | 2.5 | 4.5 µM and 5.1 µM
